± gives the standard deviation of the averaged measurements.
Compound: O=C(O)CC[C@H]1CC[C@@](c2cc(F)ccc2F)(S(=O)(=O)c2ccc(Cl)cc2)CC1 [MK0752]
Experiment: surviving fraction relative to DMSO-only wells; higher = less growth inhibition
Conditions: 0.5 nM; exposure time: 5 days
Method in brief: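 At 250–500 cells per well in 384-well plates, log-phase tumour cell lines were seeded and, 24 hours on, exposed continuously for five days to inhibitors at 0.5, 1, 5, 10, 50, 100, 500 and 1000 nM. Viability readout was CellTiter-Glo luminescence, reported as surviving fraction normalised to the median of DMSO-only wells.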

Point of comparison: 93VU HEADNECK, surviving fraction 1.19 ± 0.15. Against it:
- 22RV1 PROSTATE — within error, 1.08 ± 0.069
- 143B BONE — lower, 1 ± 0.028
- A549 LUNG — within error, 1.02 ± 0.053
- ASKA SYNOVIAL — within error, 1.12 ± 0.023
- BT20 BREAST — within error, 1.16 ± 0.11
- BT549 BREAST — within error, 1.08 ± 0.14
- CADOES1 SOFT TISSUE — within error, 0.976 ± 0.09
- CAL51 BREAST — lower, 1.02 ± 0.015
- CAL120 BREAST — lower, 1.009 ± 0.0055
- CASKI CERVIX — lower, 0.896 ± 0.038
- CHLA90 AUTONOMIC GANGLIA — lower, 0.984 ± 0.034
- CME SYNOVIAL — within error, 1.27 ± 0.23
- COLO320DM LARGE INTESTINE — within error, 1.09 ± 0.11
- DU4475 BREAST — within error, 1.04 ± 0.097
- H23 LUNG — within error, 1.064 ± 0.004
- HCC38 BREAST — within error, 1.22 ± 0.34

Same assay, conditions: 1 nM; exposure time: 5 days

Point of comparison: BT549 BREAST, surviving fraction 1.09 ± 0.14. Against it:
- 22RV1 PROSTATE — within error, 1.1 ± 0.012
- 93VU HEADNECK — within error, 1.25 ± 0.054
- 143B BONE — within error, 1.04 ± 0.03
- A549 LUNG — within error, 1.03 ± 0.043
- ASKA SYNOVIAL — within error, 1.16 ± 0.02
- BT20 BREAST — within error, 1.03 ± 0.11
- CADOES1 SOFT TISSUE — within error, 1.02 ± 0.13
- CAL51 BREAST — within error, 0.995 ± 0.035
- CAL120 BREAST — within error, 1 ± 0.047
- CASKI CERVIX — within error, 0.973 ± 0.061
- CHLA90 AUTONOMIC GANGLIA — within error, 1.05 ± 0.039
- CME SYNOVIAL — within error, 1.31 ± 0.15
- COLO320DM LARGE INTESTINE — within error, 1.18 ± 0.065
- DU4475 BREAST — within error, 0.997 ± 0.16
- H23 LUNG — within error, 1.11 ± 0.053
- HCC38 BREAST — within error, 1.15 ± 0.21

Same assay, conditions: 5 nM; exposure time: 5 days

Point of comparison: BT549 BREAST, surviving fraction 1.1 ± 0.18. Against it:
- 22RV1 PROSTATE — within error, 1.09 ± 0.021
- 93VU HEADNECK — within error, 1.14 ± 0.041
- 143B BONE — within error, 1.022 ± 0.0064
- A549 LUNG — within error, 1.06 ± 0.059
- ASKA SYNOVIAL — within error, 1.24 ± 0.038
- BT20 BREAST — within error, 1.09 ± 0.12
- CADOES1 SOFT TISSUE — within error, 0.994 ± 0.073
- CAL51 BREAST — within error, 0.972 ± 0.027
- CAL120 BREAST — within error, 1.025 ± 0.0088
- CASKI CERVIX — within error, 1.01 ± 0.047
- CHLA90 AUTONOMIC GANGLIA — within error, 1.05 ± 0.04
- CME SYNOVIAL — within error, 1.29 ± 0.09
- COLO320DM LARGE INTESTINE — within error, 1.16 ± 0.1
- DU4475 BREAST — within error, 0.927 ± 0.19
- H23 LUNG — the same, 1.1 ± 0.061
- HCC38 BREAST — within error, 1.27 ± 0.18

Same assay, conditions: 10 nM; exposure time: 5 days

Point of comparison: BT20 BREAST, surviving fraction 1.1 ± 0.17. Against it:
- 22RV1 PROSTATE — within error, 1.04 ± 0.058
- 93VU HEADNECK — within error, 1.23 ± 0.086
- 143B BONE — within error, 1.05 ± 0.015
- A549 LUNG — within error, 1.02 ± 0.062
- ASKA SYNOVIAL — within error, 1.22 ± 0.025
- BT549 BREAST — within error, 1.11 ± 0.15
- CADOES1 SOFT TISSUE — within error, 0.953 ± 0.054
- CAL51 BREAST — within error, 0.967 ± 0.064
- CAL120 BREAST — within error, 1.01 ± 0.024
- CASKI CERVIX — within error, 0.952 ± 0.03
- CHLA90 AUTONOMIC GANGLIA — within error, 1.009 ± 0.0045
- CME SYNOVIAL — higher, 1.39 ± 0.029
- COLO320DM LARGE INTESTINE — within error, 1.18 ± 0.049
- DU4475 BREAST — within error, 1.03 ± 0.21
- H23 LUNG — within error, 1.07 ± 0.063
- HCC38 BREAST — within error, 1.24 ± 0.044

Same assay, conditions: 50 nM; exposure time: 5 days

Point of comparison: CADOES1 SOFT TISSUE, surviving fraction 1.02 ± 0.14. Against it:
- 22RV1 PROSTATE — within error, 1.07 ± 0.092
- 93VU HEADNECK — within error, 1.16 ± 0.016
- 143B BONE — the same, 1.02 ± 0.044
- A549 LUNG — within error, 1.06 ± 0.054
- ASKA SYNOVIAL — within error, 1.22 ± 0.11
- BT20 BREAST — within error, 1.03 ± 0.17
- BT549 BREAST — within error, 0.986 ± 0.1
- CAL51 BREAST — within error, 1.05 ± 0.013
- CAL120 BREAST — within error, 1.03 ± 0.018
- CASKI CERVIX — within error, 1.08 ± 0.045
- CHLA90 AUTONOMIC GANGLIA — within error, 1.01 ± 0.026
- CME SYNOVIAL — higher, 1.46 ± 0.22
- COLO320DM LARGE INTESTINE — within error, 1.14 ± 0.01
- DU4475 BREAST — within error, 0.967 ± 0.22
- H23 LUNG — within error, 1.104 ± 0.0052
- HCC38 BREAST — within error, 1.21 ± 0.15

Same assay, conditions: 100 nM; exposure time: 5 days

Point of comparison: CADOES1 SOFT TISSUE, surviving fraction 0.849 ± 0.041. Against it:
- 22RV1 PROSTATE — higher, 1.11 ± 0.07
- 93VU HEADNECK — higher, 1.23 ± 0.088
- 143B BONE — higher, 1.05 ± 0.026
- A549 LUNG — higher, 1.09 ± 0.061
- ASKA SYNOVIAL — higher, 1.23 ± 0.1
- BT20 BREAST — within error, 0.941 ± 0.19
- BT549 BREAST — higher, 1.04 ± 0.07
- CAL51 BREAST — higher, 0.992 ± 0.038
- CAL120 BREAST — higher, 1.07 ± 0.028
- CASKI CERVIX — higher, 1.09 ± 0.061
- CHLA90 AUTONOMIC GANGLIA — higher, 0.952 ± 0.044
- CME SYNOVIAL — higher, 1.47 ± 0.2
- COLO320DM LARGE INTESTINE — higher, 1.2 ± 0.087
- DU4475 BREAST — within error, 0.911 ± 0.26
- H23 LUNG — higher, 1.17 ± 0.1
- HCC38 BREAST — higher, 1.34 ± 0.28

Same assay, conditions: 500 nM; exposure time: 5 days

Point of comparison: 143B BONE, surviving fraction 1.01 ± 0.02. Against it:
- 22RV1 PROSTATE — higher, 1.09 ± 0.044
- 93VU HEADNECK — higher, 1.13 ± 0.051
- A549 LUNG — within error, 1.07 ± 0.063
- ASKA SYNOVIAL — higher, 1.14 ± 0.087
- BT20 BREAST — within error, 0.914 ± 0.096
- BT549 BREAST — lower, 0.89 ± 0.095
- CADOES1 SOFT TISSUE — lower, 0.801 ± 0.086
- CAL51 BREAST — within error, 1.02 ± 0.036
- CAL120 BREAST — within error, 1.023 ± 0.0088
- CASKI CERVIX — within error, 0.987 ± 0.054
- CHLA90 AUTONOMIC GANGLIA — higher, 1.1 ± 0.037
- CME SYNOVIAL — higher, 1.24 ± 0.11
- COLO320DM LARGE INTESTINE — higher, 1.17 ± 0.096
- DU4475 BREAST — within error, 0.976 ± 0.35
- H23 LUNG — higher, 1.103 ± 0.0038
- HCC38 BREAST — higher, 1.12 ± 0.03

Same assay, conditions: 1000 nM; exposure time: 5 days

Point of comparison: H23 LUNG, surviving fraction 1.13 ± 0.058. Against it:
- 22RV1 PROSTATE — within error, 1.08 ± 0.026
- 93VU HEADNECK — within error, 1.18 ± 0.1
- 143B BONE — within error, 1.06 ± 0.023
- A549 LUNG — within error, 1.1 ± 0.038
- ASKA SYNOVIAL — within error, 1.14 ± 0.017
- BT20 BREAST — lower, 0.829 ± 0.19
- BT549 BREAST — within error, 1.03 ± 0.075
- CADOES1 SOFT TISSUE — lower, 0.931 ± 0.11
- CAL51 BREAST — lower, 1.02 ± 0.041
- CAL120 BREAST — lower, 1 ± 0.054
- CASKI CERVIX — lower, 0.943 ± 0.057
- CHLA90 AUTONOMIC GANGLIA — within error, 1.09 ± 0.018
- CME SYNOVIAL — higher, 1.34 ± 0.14
- COLO320DM LARGE INTESTINE — within error, 1.25 ± 0.27
- DU4475 BREAST — within error, 1.05 ± 0.38
- HCC38 BREAST — within error, 1.1 ± 0.16
